Entries after “also recorded” stand apart in the source; their conditions may differ.

One assay concerns α-D-glucosidase (Bacillus). Briefly: Glycosidase inhibition (Table 3 panel). Format: biochemical. Conditions: 1 mg/mL aqueous solution; run in water. The procedure, abridged:
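Enzymes tested at 27 °C in citric acid/disodium hydrogen phosphate buffer at each enzyme's optimum pH, with 1 mg/mL aqueous extract and […] para-nitrophenyl substrate. Reactions stopped with 0.4 M glycine (pH 10.4) within the exponential phase; absorbance read at 405 nm, triplicate means.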
On to `N[C@@H](Cc1ccc(B(O)O)cc1)C(=O)O` [BPA, 4-borono-L-phenylalanine, reference compound], for which the “Percentage inhibition α-D-Glucosidase Bacillus” value is given as 19.9%.
As to “Borocaptate sodium [BSH, reference compound]”, the “Percentage inhibition α-D-Glucosidase Bacillus” value came out at 48.1%.
As to `N[C@@H](Cc1ccc(B(O)O)cc1)C(=O)O` [^10B-BPA, reference compound], the “Percentage inhibition α-D-Glucosidase Bacillus” value is recorded as 19.5%.

The next assay has as its system glycosidases in the panel. Briefly: Glycosidase inhibition, whole Table 2 panel. It counts as biochemical.
Details: not given
The text has this: The enzymes α-D-glucosidase (yeast), β-D-glucosidases (almond, bovine liver), α-D-galactosidase (coffee beans), β-D-galactosidase (bovine liver), α-D-mannosidase (Jack bean), β-D-mannosidase (snail), α-L-rhamnosidase (P. decumbens), α-L-fucosidase (bovine kidney), trehalase (porcine kidney), β-D-glucuronidases (E. coli, bovine liver), amyloglucosidase (A. niger), para-nitrophenyl glycosides, and various disaccharides were purchased from Sigma-Aldrich Co (St. Louis, MO, USA).
Brush border membranes were prepared from the rat small intestine according to the method of Kessler et al., and were assayed at pH 6.8 for rat intestinal maltase using maltose. For rat intestinal maltase, porcine kidney trehalase, and A. niger amyloglucosidase activities, the reaction mixture contained maltose ([…]) and the appropriate amount of enzyme, and the incubations were performed for 10–30 min at 37 °C. The reaction was stopped by heating at 100 °C for 3 min. After centrifugation (600 g; 10 min), the resulting reaction mixture was added to the Glucose CII-test Wako (Wako Pure Chemical Ind., Osaka, Japan). The absorbance at 505 nm was measured to determine the amount of the released D-glucose. Other glycosidase activities were determined using an appropriate para-nitrophenyl glycoside as substrate at the optimum pH of each enzyme. The reaction mixture contained the substrate ([…]) and the appropriate amount of enzyme. The reaction was stopped by the addition of Na2CO3 ([…]). The released para-nitrophenol was measured spectrometrically at 400 nm. All reactions were run in […].
For the compound “N-(3-Hydroxyphenyl)-1,4-dideoxy-1,4-imino-L-gulitol [meta 7]”, the “Inhibitory activity over the glycosidase panel, in words” value is given as “complete abrogation of inhibition; also recorded: abrogation of biological activity”.
As to `CC1(C)O[C@H]2O[C@H]3[C@@H]([C@H]2O1)N(Cc1ccccc1B(O)O)C[C@H]3O` [ortho 5], the “Inhibitory activity over the glycosidase panel, in words” value is given as “abrogates inhibitory activity”.
Take `CC1(C)O[C@H]2O[C@H]3[C@@H]([C@H]2O1)N(Cc1cccc(O)c1)C[C@H]3O` [meta 6]: the “Inhibitory activity over the glycosidase panel, in words” value is listed as “abrogates inhibitory activity”.
On the same count and under the same terms, then `CC1(C)O[C@H]2O[C@H]3[C@@H]([C@H]2O1)N(Cc1cccc(B(O)O)c1)C[C@H]3O` [meta 5, N-(3-Methylphenylboronic acid)-3,6-dideoxy-3,6-imino-1,2-O-isopropylidene-α-D-glucofuranose], with “abrogates inhibitory activity”.
